Results taken from patent US6794148B2, “High speed, automated, continuous flow, multi-dimensional molecular selection and analysis” (PerSeptive Biosystems, Inc., priority 1995, dated 2004).
Blank lines part the entries; values can stand above or below the molecule they belong to.

Assays:
[1] = target: LPS; conditions: read-out: Kd for LPS (reported affinity); cited from earlier work
[2] = system: LPS (serotype O55;B5); assay: LPS binding, tandem weak anion exchange / reverse phase columns with varied wash volumes; conditions: for wash volumes of column 1 needed to reduce peak by 50%: 1 CV=1.66 ml, 50 mM Tris pH 6.7; for retention on weak anion exchange column 1: with/without preincubation with LPS
Source text: We used a tandem column method employing POROS™ columns on a BioCAD™ 20 Workstation. Column 1 was a weak anion exchange column (PI/M; 4.6×100 mm) while column 2 was a reverse phase column (R2/H; 4.6×100 mm). […] LPS, however, would be expected to interact with this column due to the presence of two charged phosphate groups at the lipid A region of the molecule. […] Material retained on column 1 was eluted directly onto column 2 where it was captured. Elution of column 2 allowed the resolution of peaks arising from column 1.
Screening the library for binding to LPS was performed as follows. The cationic fraction of the XXXFL library was incubated (30 min/RT) with 1-3 mg/ml of LPS (serotype O55;B5; Sigma Chemical Co., St. Louis, Mo.) in 50 mM Tris, pH 6.7. At this time the incubation mixture was injected and run over column 1 on the BioCAD™ Workstation (equilibrated in the same buffer). The column was run at 4 ml/min. After washing with the appropriate number of column volumes of equilibration buffer (1 CV=1.66 ml), the column was purged and eluted (using 8 mM HCl, 1M NaCl) directly onto column 2 by switching the latter column in line with column 1 during the elution process. Material captured on column 2 was eluted using a gradient from 12 mM HCl in water to 80% ACN, 6 mM HCl. Peaks were collected, further purified by rerunning on a vydac C-18 column (4.6×250 mm), and analyzed by Mass Spectrometry (on a Voyager™ MALDI-TOF instrument; PerSeptive Biosystems, Framingham, Mass.) and peptide sequencing (Hewlett Packard). Peptides identified were synthesized and binding of these molecules to the Lipid A region of the LPS was confirmed by measuring the ability of PmxB or Pentamidine to compete with the peptide for this site.
The number of wash volumes required to reduce the peak for these agents correlated with the reported affinities of these agents for LPS; PmxB (Kd […]) was reduced 50% after 42 CVs washing of column 1 while pentamidine (Kd 100 nM) required a higher number of washes for a similar reduction (46 CVs). Using this methodology we could rapidly examine which peaks from the library were capable of binding to LPS with the highest affinity since, upon exposure to higher numbers of wash volumes only the peptides with higher affinity for the target were retained. […] Three such peaks from the XXXFL library and 3 peaks from the CXXXC library were further purified and characterized by MS and peptide sequencing. […] The other peptides will be synthesized and studied in a similar manner although another approach being considered is that a sublibrary of the format ZZZFL (where Z represents either R or K) be screened to identify the member with the highest affinity. Candidates purified from the cyclic library are still awaiting sequencing.

[3] = system: mouse IgG (Fc fragment); assay: Solution phase peptide screening (SEC - reversed phase) of protein A and G digests; assay type: binding; conditions: native and denatured recombinant protein A and G digests
Experimental: 5 mg each of either mouse IgG (whole) or the Fc fragment was incubated with 20 mg of natural library and protein A and G digests, respectively. The mixture was dissolved in 1 ml of a mixture of 25 mM sodium phosphate buffer and 0.15 M NaCl (pH 7) overnight at 4° C. After incubation, several chromatographic runs through the Superdex SEC and RP columns were conducted with 200 of the protein and peptide mixture injected through the Superdex column during each run. The flow rate for the Superdex column was 0.75 m/min with the 25 mM sodium phosphate buffer and 0.15 M NaCl (pH 7) mixture. The early eluting protein peak was collected directly onto the RP column. The remaining portion of the peak was washed off the SEC. The mouse IgG (whole) or Fc fragment and its associated peptides were then eluted from the RP column under the following conditions:
Fractions corresponding to bound peptide peaks were lyophilized and redissolved in 1001 of 0.1% TFA/DIW for mass spec analysis by MALDI-TOF.

[4] = target: Concanavalin A (Con A) (Canavalia ensiformis, UniProt P02866)
Source text: (§1) The lectin Concanavalin A (Con A) has been used. Ligands were screened for specific binding to the sugar site of Con A as an example of the bimolecular approach to screening a mixture of components for interaction with a target. Biotinylated succinyl Con A was immobilized onto a streptavidin POROS™ support (BA cartridge, 2.1×30 mm). […] After exposing the column to 10 CVs of CAB buffer (0.2 m/min.), the remaining peptides were acid eluted onto a RP column. These peptides were eluted from a RP HPLC column using an acetonitrile gradient and the fractions were collected, pooled and sequenced. Recovery of each amino acid was expressed as a percentage of the total amount of amino acids recovered at each cycle of sequencing (AA %). Amino acid enrichment was then expressed for each amino acid as follows: [formula]

[5] = system: Concanavalin A (Con A)
Source text: as §1

[6] = system: IgG; assay: IgG purification from human serum on POROS-immobilized peptide column; assay type: binding
Experimental: 1 g POROS™ AL (aldehyde) was suspended in 10 mM PBS (pH 7.5) containing 100 mg sodium cyanoborohydride (NaCNBH3). 5 to 20 mg of each of the peptides selected by various screening procedures was added to the resin and the mixture was shaken overnight at room temperature. 100 mg sodium borohydride (NaBH4) was then added and the mixture was shaken for another 2 hrs. The beads were then washed with PBS and packed into 4.6 mm D×100 mm L column using POROS™ Self Pack® device.
100 μl of 1:10 diluted serum was injected onto the peptide column which was equilibrated with 20 mM tris (pH 8.0) at 5 ml/min. The bound proteins were eluted with 0-1 M NaCl gradient in 15 CVs. Fractions were collected manually and concentrated by Speed Vac for subsequent analysis by SDS-polyacrylamide gel electrophoresis.
The […] (SEQ ID NO: 8) peptide with heme group was immobilized on POROS™AL® (aldehyde) via the N-terminal end. This POROS™-peptide conjugate was used to separate IgG from serum at pH 8 under a 0-1 M NaCl gradient. […] To determine the nature of interaction, the purification profile of IgG separated on the POROS™-peptide column was compared with the IgG purified on standard ion exchange columns such as POROS™-CM and POROS™ HQ. […] The effect of the varying loading densities of peptide (from 10 mg/g POROS™ to 100 mg/g POROS™) on specificity and capacity for IgG binding was also investigated. The specificity of the peptide for IgG binding was also investigated. […] At low loading density (10 mg/g POROS™) IgG bound primarily via ionic interaction requiring elution of bound IgG with salt gradient. At higher loading density ([…]) IgG bound strongly and eluted with acid buffer. The binding capacity varied from 1-2 mg/ml column volume at lower ligand density to 30 mg/ml column volume at higher ligand densities.
A simplified analog of the heme peptide ([…]) (SEQ ID NO: 9) was synthesized and immobilized on POROS™ AL via the N-terminal end. […] The bound IgG was eluted from the GAQGHTVBK (SEQ ID NO: 9)-POROS™ column with 100 mM NaCl. The IgG binding capacity was determined to be 5 mg/ml column volume. Loading densities from 20 mg/g to 40 mg peptide /g POROS™ were evaluated. At these ligand densities, the specificity of IgG binding was not affected, but the capacity was reduced.

[7] = system: monoclonal antibody (mouse IgG2a, clone 3E-7) raised against human β-endorphin; assay: Peptide binding to immobilized anti-β-endorphin mAb affinity column in tandem with C-18 column
Experimental: The purchased mAb (280 mg resuspended in 1 ml H2O) was passed over an XL cartridge (2.1×30 mm) consisting of protein-G coupled to POROS™ perfusion chromatographic media (PerSeptive Biosystems, Framingham, Mass.) by making […] injections on a BioCAD™ 20 Workstation (PerSeptive Biosystems, Framingham, Mass.). Protein-G binds to the Fc region of antibodies with high affinity. The mAb was subsequently cross-linked to the protein G using the standard methods and materials provided with the XL column. In brief, this consisted of passing 14 ml of cross-linking solution (100 mM triethanolamine, pH 8.5, 7.8 mg/ml dimethyl pimelimidate (DMP)) over the column at a flow rate of 0.5 ml/mm. The cross-linking reagent was quenched by subsequent injection of 2 ml of 100 mM monoethanolamine, pH 9.0. The sensor cartridge was washed with PBS, pH 7.4 at 0.5 ml/min for 2 min followed by a further injection of 2 ml of quench solution and washed as above. […] A second XL column (without antibody) was treated with cross-linking reagents and washed as for the affinity column for use as a “control column”.
The target immobilized affinity column prepared above was plumbed in tandem mode to a vydac reversed phase C-18 column on a BioCAD™ Workstation using the configuration shown in FIG. 5. This configuration allowed independent equilibration and washing of the affinity and vydac columns while allowing in line elution of material bound to the mAb-column directly onto the vydac column. The reverse phase vydac column could then be eluted independently of the affinity column.
This reversed phase column was then developed with a gradient of acetonitrile (4% ACN/12 mM HCl to 80% ACN/6 mM HCl over 18 min; flow rate 1 ml/min). Both columns were re-equilibrated in their respective starting buffers prior to the next injection.
The peptide solution (20 nmol) was injected onto the affinity column and then unbound peptide was removed by washing the column with PBS, pH, 7.4. Peptides affinity captured by the antibody was eluted from the “target column” directly onto the C-18 column for resolution.

[8] = target: Monoclonal antibody (mAb), mouse IgG2a, clone 3E-7, raised against human β-endorphin (mouse); assay: 20 nmol peptide injected on immobilized mAb column, acid eluted onto C-18 column; peak area
[9] = target: Monoclonal antibody (mAb), mouse IgG2a, clone 3E-7, raised against human β-endorphin (mouse); assay: increasing quantities of peptide injected on immobilized mAb column; peak height on C-18 column
[10] = target: human IgG (whole), pure or from human serum (human); assay: peptide immobilized on POROS AL via the N-terminal end; IgG binding capacity of the column

Molecule: N=C(N)c1ccc(OCCCCCOc2ccc(C(=N)N)cc2)cc1 [pentamidine]
Kd [1]: 100 nM
wash volumes of column 1 needed to reduce peak by 50% [2]: 46 CVs
retention on weak anion exchange column 1 [2]: retained on column 1 under the conditions used only after preincubation in the presence of LPS

Molecule: EKEPEVID (OTHER INFORMATION: Description of Artificial Sequence: Protein fragment derived from the tryptic digest of protein A and G) [peptide from recombinant Protein G digest]
selected as binder in solution phase screening [3]: identified

Molecule: GDAPTPEKEPEASI (OTHER INFORMATION: Description of Artificial Sequence: Protein fragment derived from the tryptic digest of protein A and G) [peptide from recombinant Protein G digest]
selected as binder in solution phase screening [3]: identified

Molecule: HHRSY
displacement by competing sugar ligand ([4]; high concentration of competing sugar ligand): displaced somewhat
binding to Con A immobilized on the column ([4]; synthesized peptide): capable of binding specifically to Con A
binding to control column [5]: little binding to the control column

Molecule: KKRFL (OTHER INFORMATION: Description of Artificial Sequence: synthetic peptide)
affinity for LPS relative to Pentamidine [2]: much lower than the latter molecule
competition for LPS binding ([2]; competition experiment with Pentamidine): displaced by Pentamidine
binding to LPS ([2]; synthesized peptide, same paradigm): demonstrated to bind to LPS

Molecule: TVTEK (OTHER INFORMATION: Description of Artificial Sequence: Protein fragment derived from the tryptic digest of protein A and G)
IgG binding affinity relative to proteins A & G ([6]; salt gradient suffices for elution): bind IgG, but with less affinity

Molecule: TVTEKPE (OTHER INFORMATION: Description of Artificial Sequence:Protein fragment derived from the tryptic digest of protein A and G) [peptide from recombinant Protein G digest]
selected as binder in solution phase screening [3]: identified

Molecule: TVTEKPEV (immobilized on POROS; OTHER INFORMATION: Description of Artificial Sequence: Synthetic peptide corresponding to a part of the Fc binding domain of recombinant protein G)
specificity of IgG binding from human serum ([6]; pH 8, immobilized on POROS via N-terminal end): comparable specificity as the POROS™-Protein A conjugate

retention by the mAb affinity column ([7]; parallel experiment): not retained
Molecule: YEYFL (OTHER INFORMATION: Description of Artificial Sequence: synthetic peptide)

Molecule: YGGFL
amount of the peptide recovered from affinity column, calculated from peak area ([7]; 20 nmol injected, PBS pH 7.4 wash, eluted onto C-18): approximately 1.2 nmoles
effect of injection flow rate on amount of peptide bound/recovered ([7]; flow rate 0.2 ml/min to 5 ml/min): did not affect the recovery
amount of bound peptide at saturation, calculated from peak height ([7]; increasing quantities injected): about 1.2 nmoles

Molecule: polymyxin B
wash volumes of column 1 needed to reduce peak by 50% [2]: 42 CVs
retention on weak anion exchange column 1 [2]: retained on column 1 under the conditions used only after preincubation in the presence of LPS

amount of the peptide recovered [8]: 1.2 nmol
amount of the bound peptide at saturation [9]: 1.2 nmol
Molecule: synthetic peptide YGGFL (SEQ ID NO: 1)

IgG binding capacity (mg/ml column volume) [10]: 5
Molecule: GAQGHTVEK [… (SEQ ID NO: 9), simplified analog of the heme peptide]
